Reference: the NIST ThermoML archive (doi:10.1016/j.jct.2008.03.007)
Numbers after ± are expanded uncertainties.

Columns and labels:
[1] = 101.33 kPa, Liquid, Vibrating tube method
[2] = xn = mol fraction of the nth substance listed; settings: 101 kPa, Liquid; for mass density: Vibrating tube method

CO [methanol]
[1]
Settings	mass density [kg/m3]
298.15 K	786 ± 6
303.15 K	783.4 ± 6
313.15 K	774.6 ± 6

CCCCCCCC[N+](C)(CCCCCCCC)CCCCCCCC.O=S(=O)([N-]S(=O)(=O)C(F)(F)F)C(F)(F)F + CO
[2]
Settings	mass density, 298.15 K [kg/m3]	mass density, 303.15 K [kg/m3]	mass density, 313.15 K [kg/m3]	speed of sound, 298.15 K [m/s]
x1 = 0.0336	–	–	–	1097.8 ± 6.4
x1 = 0.0781	958 ± 6	954 ± 6	940 ± 6	–
x1 = 0.1291	999 ± 6	994 ± 6	982 ± 6	1085.4 ± 6.4
x1 = 0.2125	1037 ± 6	1031 ± 6	1022 ± 6	1074.5 ± 6.3
x1 = 0.35	1068 ± 6	1062 ± 6	1055 ± 6	–
x1 = 0.4172	1077 ± 6	1071 ± 6	1064 ± 6	1047.9 ± 6.3
x1 = 0.5362	1089 ± 6	1083 ± 6	1076 ± 6	1032.4 ± 6.2
x1 = 0.6529	1097 ± 6	1092 ± 6	1085 ± 6	–
x1 = 0.6611	–	–	–	1016.1 ± 6.2
x1 = 0.7084	1100 ± 6	1095 ± 6	1088 ± 6	1010 ± 6.2
x1 = 0.8522	1106 ± 6	1102 ± 6	1095 ± 6	991.2 ± 6.2
x1 = 0.9345	1108 ± 6	1104 ± 6	1097 ± 6	–

CCCCCCCC[N+](C)(CCCCCCCC)CCCCCCCC.O=S(=O)([N-]S(=O)(=O)C(F)(F)F)C(F)(F)F + CCO
[2]
Settings	mass density, 298.15 K [kg/m3]	mass density, 303.15 K [kg/m3]	mass density, 313.15 K [kg/m3]	speed of sound, 298.15 K [m/s]
x1 = 0.0484	896 ± 6	896 ± 6	883 ± 6	–
x1 = 0.1731	1005 ± 6	1003 ± 6	994 ± 6	1116.1 ± 6.5
x1 = 0.2728	1041 ± 6	1036 ± 6	1029 ± 6	1098.8 ± 6.4
x1 = 0.3353	1055 ± 6	1050 ± 6	1044 ± 6	1087.9 ± 6.4
x1 = 0.4286	1070 ± 6	1063 ± 6	1058 ± 6	1071.6 ± 6.4
x1 = 0.5145	1080 ± 6	1072 ± 6	1068 ± 6	1056.6 ± 6.3
x1 = 0.6307	1090 ± 6	1082 ± 6	1078 ± 6	1036.4 ± 6.3
x1 = 0.7338	1097 ± 6	1090 ± 6	1085 ± 6	1018.4 ± 6.3
x1 = 0.7774	1099 ± 6	1092 ± 6	1087 ± 6	1010.8 ± 6.3
x1 = 0.9393	1107 ± 6	–	–	–
x1 = 0.9493	–	1103 ± 6	1096 ± 6	980.8 ± 6.2

CCO [ethanol]
[1]
Settings	mass density [kg/m3]
298.15 K	785.5 ± 6
303.15 K	782 ± 6
313.15 K	773.7 ± 6

CCCCCCCC[N+](C)(CCCCCCCC)CCCCCCCC.O=S(=O)([N-]S(=O)(=O)C(F)(F)F)C(F)(F)F
[1]
Settings	mass density [kg/m3]
298.15 K	1109.3 ± 6.1
303.15 K	1105.1 ± 6.1
313.15 K	1098.3 ± 6.1

CCCCCCCC[N+](C)(CCCCCCCC)CCCCCCCC.O=S(=O)([N-]S(=O)(=O)C(F)(F)F)C(F)(F)F + CCCO
[2]
Settings	mass density, 298.15 K [kg/m3]	mass density, 303.15 K [kg/m3]	mass density, 313.15 K [kg/m3]	speed of sound, 298.15 K [m/s]
x1 = 0.0736	919 ± 6	915 ± 6	907 ± 6	1187.7 ± 6.8
x1 = 0.1146	956 ± 6	952 ± 6	944 ± 6	1178.1 ± 6.7
x1 = 0.2152	1011 ± 6	1006 ± 6	999 ± 6	1154.7 ± 6.7
x1 = 0.3303	1045 ± 6	1041 ± 6	1033 ± 6	1127.9 ± 6.6
x1 = 0.4033	1059 ± 6	1055 ± 6	1047 ± 6	1110.9 ± 6.5
x1 = 0.524	1076 ± 6	1072 ± 6	1064 ± 6	1082.8 ± 6.5
x1 = 0.6682	–	–	–	1049.2 ± 6.4
x1 = 0.6882	1091 ± 6	1087 ± 6	1080 ± 6	–
x1 = 0.7833	1098 ± 6	1094 ± 6	1087 ± 6	1022.4 ± 6.3
x1 = 0.8439	1102 ± 6	1097 ± 6	1090 ± 6	1008.3 ± 6.3
x1 = 0.9533	1107 ± 6	1103 ± 6	1096 ± 6	982.9 ± 6.2

CCCO [propan-1-ol]
[1]
Settings	mass density [kg/m3]
298.15 K	799.4 ± 6
303.15 K	796.4 ± 6
313.15 K	788.6 ± 6
